{"source": "paper PMC7093416", "about": "“Selective USP7 inhibition elicits cancer cell killing through a p53-dependent mechanism” (Scientific Reports, 2020)", "tested_on": "panel of 484 cancer cell lines", "assay": "PRISM cancer cell line profiling, 5 days", "type": "cell-based", "parameters": "AUC: unit not given beside the values", "description": "Cancer cell line profiling was performed using the Broad’s PRISM platform. Cell treatment and data analysis were performed as described in Yu et al[42]. Raw Luminex signal was converted to AUC values for each cell line as described. The resulting AUC profile for each compound was modeled against DepMap using the limma package in R[71]. Because hotspot mutation analysis was performed against DepMap, TP53 annotations in Fig. 6c,d are directly from DepMap.", "data": [{"smiles": "CN1CCN(CCC(=O)Nc2ccc3c(=O)n(CC4(O)CCN(C(=O)[C@H](CCCNC(=O)c5ccc6c(Cl)c7c(nc6c5)CCCC7)Cc5ccccc5)CC4)cnc3c2)CC1", "note": "[XL177B]", "values": [{"measurement": "AUC", "setting": "8MGBA_CENTRAL_NERVOUS_SYSTEM", "value": 1.054}, {"measurement": "AUC", "setting": "22RV1_PROSTATE", "value": 1.093}, {"measurement": "AUC", "setting": "42MGBA_CENTRAL_NERVOUS_SYSTEM", "value": 1.146}, {"measurement": "AUC", "setting": "253JBV_URINARY_TRACT", "value": 1.057}, {"measurement": "AUC", "setting": "253J_URINARY_TRACT", "value": 1.086}, {"measurement": "AUC", "setting": "639V_URINARY_TRACT", "value": 1.062}, {"measurement": "AUC", "setting": "647V_URINARY_TRACT", "value": 1.143}, {"measurement": "AUC", "setting": "769P_KIDNEY", "value": 1.004}, {"measurement": "AUC", "setting": "786O_KIDNEY", "value": 1.051}, {"measurement": "AUC", "setting": "5637_URINARY_TRACT", "value": 0.9181}, {"measurement": "AUC", "setting": "8305C_THYROID", "value": 1.192}, {"measurement": "AUC", "setting": "8505C_THYROID", "value": 0.9816}, {"measurement": "AUC", "setting": "2313287_STOMACH", "value": 1.329}, {"measurement": "AUC", "setting": "A101D_SKIN", "value": 1.213}, {"measurement": "AUC", "setting": "A172_CENTRAL_NERVOUS_SYSTEM", "value": 1.079}, {"measurement": "AUC", "setting": "A204_SOFT_TISSUE", "value": 1.022}, {"measurement": "AUC", "setting": "A375_SKIN", "value": 1.179}, {"measurement": "AUC", "setting": "A549_LUNG", "value": 1.079}, {"measurement": "AUC", "setting": "A673_BONE", "value": 1.28}, {"measurement": "AUC", "setting": "A704_KIDNEY", "value": 1.217}, {"measurement": "AUC", "setting": "A2058_SKIN", "value": 1.197}, {"measurement": "AUC", "setting": "A2780_OVARY", "value": 1.076}, {"measurement": "AUC", "setting": "ABC1_LUNG", "value": 1.075}, {"measurement": "AUC", "setting": "ACCMESO1_PLEURA", "value": 0.9927}, {"measurement": "AUC", "setting": "ACHN_KIDNEY", "value": 1.273}, {"measurement": "AUC", "setting": "AGS_STOMACH", "value": 1.102}, {"measurement": "AUC", "setting": "AN3CA_ENDOMETRIUM", "value": 1.099}, {"measurement": "AUC", "setting": "ASPC1_PANCREAS", "value": 1.162}, {"measurement": "AUC", "setting": "BC3C_URINARY_TRACT", "value": 1.114}, {"measurement": "AUC", "setting": "BCPAP_THYROID", "value": 1.195}, {"measurement": "AUC", "setting": "BECKER_CENTRAL_NERVOUS_SYSTEM", "value": 1.058}, {"measurement": "AUC", "setting": "BEN_LUNG", "value": 1.091}, {"measurement": "AUC", "setting": "BFTC905_URINARY_TRACT", "value": 1.11}, {"measurement": "AUC", "setting": "BFTC909_KIDNEY", "value": 1.1037}, {"measurement": "AUC", "setting": "BHT101_THYROID", "value": 1.056}, {"measurement": "AUC", "setting": "BICR6_UPPER_AERODIGESTIVE_TRACT", "value": 0.9836}, {"measurement": "AUC", "setting": "BICR16_UPPER_AERODIGESTIVE_TRACT", "value": 1.161}, {"measurement": "AUC", "setting": "BICR31_UPPER_AERODIGESTIVE_TRACT", "value": 0.9322}, {"measurement": "AUC", "setting": "BICR56_UPPER_AERODIGESTIVE_TRACT", "value": 0.9864}, {"measurement": "AUC", "setting": "BT474_BREAST", "value": 1.187}, {"measurement": "AUC", "setting": "BT549_BREAST", "value": 0.9575}, {"measurement": "AUC", "setting": "BXPC3_PANCREAS", "value": 1.32}, {"measurement": "AUC", "setting": "CADOES1_BONE", "value": 1.116}, {"measurement": "AUC", "setting": "CAKI1_KIDNEY", "value": 1.162}, {"measurement": "AUC", "setting": "CAL12T_LUNG", "value": 1}, {"measurement": "AUC", "setting": "CAL27_UPPER_AERODIGESTIVE_TRACT", "value": 1.104}, {"measurement": "AUC", "setting": "CAL29_URINARY_TRACT", "value": 1.1383}, {"measurement": "AUC", "setting": "CAL51_BREAST", "value": 1.013}, {"measurement": "AUC", "setting": "CAL54_KIDNEY", "value": 1.167}, {"measurement": "AUC", "setting": "CAL62_THYROID", "value": 1.094}, {"measurement": "AUC", "setting": "CAL78_BONE", "value": 1.0528}, {"measurement": "AUC", "setting": "CAL120_BREAST", "value": 0.9632}, {"measurement": "AUC", "setting": "CALU1_LUNG", "value": 0.8074}, {"measurement": "AUC", "setting": "CALU6_LUNG", "value": 1.057}, {"measurement": "AUC", "setting": "CAMA1_BREAST", "value": 1.095}, {"measurement": "AUC", "setting": "CAOV3_OVARY", "value": 1.1}, {"measurement": "AUC", "setting": "CAPAN2_PANCREAS", "value": 1.138}, {"measurement": "AUC", "setting": "CCFSTTG1_CENTRAL_NERVOUS_SYSTEM", "value": 0.9645}, {"measurement": "AUC", "setting": "CFPAC1_PANCREAS", "value": 1.136}, {"measurement": "AUC", "setting": "CHL1_SKIN", "value": 1.081}, {"measurement": "AUC", "setting": "CJM_SKIN", "value": 1.284}, {"measurement": "AUC", "setting": "CL34_LARGE_INTESTINE", "value": 1.203}, {"measurement": "AUC", "setting": "COLO668_LUNG", "value": 1.113}, {"measurement": "AUC", "setting": "COLO679_SKIN", "value": 1.002}, {"measurement": "AUC", "setting": "COLO680N_OESOPHAGUS", "value": 1.0645}, {"measurement": "AUC", "setting": "COLO741_SKIN", "value": 1.159}, {"measurement": "AUC", "setting": "COLO783_SKIN", "value": 1.1}, {"measurement": "AUC", "setting": "COLO792_SKIN", "value": 1.078}, {"measurement": "AUC", "setting": "COLO800_SKIN", "value": 1.008}, {"measurement": "AUC", "setting": "CORL23_LUNG", "value": 1.07}, {"measurement": "AUC", "setting": "CORL105_LUNG", "value": 1.1478}, {"measurement": "AUC", "setting": "COV362_OVARY", "value": 1.091}, {"measurement": "AUC", "setting": "COV434_OVARY", "value": 0.9992}, {"measurement": "AUC", "setting": "DANG_PANCREAS", "value": 1.066}, {"measurement": "AUC", "setting": "DAOY_CENTRAL_NERVOUS_SYSTEM", "value": 0.9946}, {"measurement": "AUC", "setting": "DBTRG05MG_CENTRAL_NERVOUS_SYSTEM", "value": 1.141}, {"measurement": "AUC", "setting": "DETROIT562_UPPER_AERODIGESTIVE_TRACT", "value": 1.072}, {"measurement": "AUC", "setting": "DKMG_CENTRAL_NERVOUS_SYSTEM", "value": 1.0187}, {"measurement": "AUC", "setting": "DMS273_LUNG", "value": 1.134}, {"measurement": "AUC", "setting": "DU145_PROSTATE", "value": 1.137}, {"measurement": "AUC", "setting": "DV90_LUNG", "value": 0.9062}, {"measurement": "∆ (AUC, TP53 mutation vs WT; decreased sensitivity)", "setting": "DepMap TP53 mutation annotation", "value": "not significantly associated"}, {"measurement": "AUC", "setting": "EBC1_LUNG", "value": 1.133}, {"measurement": "AUC", "setting": "ECGI10_OESOPHAGUS", "value": 1.109}, {"measurement": "AUC", "setting": "EFM192A_BREAST", "value": 0.9815}, {"measurement": "AUC", "setting": "EFO21_OVARY", "value": 1.192}, {"measurement": "AUC", "setting": "EFO27_OVARY", "value": 1.165}, {"measurement": "AUC", "setting": "EN_ENDOMETRIUM", "value": 1.137}, {"measurement": "AUC", "setting": "ES2_OVARY", "value": 1.077}, {"measurement": "AUC", "setting": "ESS1_ENDOMETRIUM", "value": 1.338}, {"measurement": "AUC", "setting": "EWS502_BONE", "value": 1.036}, {"measurement": "AUC", "setting": "FADU_UPPER_AERODIGESTIVE_TRACT", "value": 1.234}, {"measurement": "AUC", "setting": "FTC133_THYROID", "value": 0.9765}, {"measurement": "AUC", "setting": "FTC238_THYROID", "value": 0.9864}, {"measurement": "AUC", "setting": "G292CLONEA141B1_BONE", "value": 1.035}, {"measurement": "AUC", "setting": "G361_SKIN", "value": 1.116}, {"measurement": "AUC", "setting": "G401_SOFT_TISSUE", "value": 0.7376}, {"measurement": "AUC", "setting": "G402_SOFT_TISSUE", "value": 0.8902}, {"measurement": "AUC", "setting": "GAMG_CENTRAL_NERVOUS_SYSTEM", "value": 1.162}, {"measurement": "AUC", "setting": "GB1_CENTRAL_NERVOUS_SYSTEM", "value": 1.065}, {"measurement": "AUC", "setting": "GCIY_STOMACH", "value": 0.9556}, {"measurement": "AUC", "setting": "GCT_SOFT_TISSUE", "value": 1.093}, {"measurement": "AUC", "setting": "GI1_CENTRAL_NERVOUS_SYSTEM", "value": 0.984}, {"measurement": "AUC", "setting": "GMS10_CENTRAL_NERVOUS_SYSTEM", "value": 0.9403}, {"measurement": "AUC", "setting": "GOS3_CENTRAL_NERVOUS_SYSTEM", "value": 0.9659}, {"measurement": "AUC", "setting": "GP2D_LARGE_INTESTINE", "value": 1.185}, {"measurement": "AUC", "setting": "H4_CENTRAL_NERVOUS_SYSTEM", "value": 1.05}, {"measurement": "AUC", "setting": "HARA_LUNG", "value": 1.202}, {"measurement": "AUC", "setting": "HCC15_LUNG", "value": 1.143}, {"measurement": "AUC", "setting": "HCC38_BREAST", "value": 1.103}, {"measurement": "AUC", "setting": "HCC44_LUNG", "value": 1.112}, {"measurement": "AUC", "setting": "HCC56_LARGE_INTESTINE", "value": 1.103}, {"measurement": "AUC", "setting": "HCC78_LUNG", "value": 1.106}, {"measurement": "AUC", "setting": "HCC95_LUNG", "value": 1.096}, {"measurement": "AUC", "setting": "HCC366_LUNG", "value": 1.065}, {"measurement": "AUC", "setting": "HCC827_LUNG", "value": 0.9535}, {"measurement": "AUC", "setting": "HCC1143_BREAST", "value": 1.163}, {"measurement": "AUC", "setting": "HCC1195_LUNG", "value": 0.8866}, {"measurement": "AUC", "setting": "HCC1359_LUNG", "value": 1.197}, {"measurement": "AUC", "setting": "HCC1419_BREAST", "value": 1.107}, {"measurement": "AUC", "setting": "HCC1428_BREAST", "value": 0.9597}]}]}
